The target in experiment [1] is T1, Tyrosine-protein kinase JAK3 (Homo sapiens, UniProt P52333).
T1 sequence (P52333 whole entry): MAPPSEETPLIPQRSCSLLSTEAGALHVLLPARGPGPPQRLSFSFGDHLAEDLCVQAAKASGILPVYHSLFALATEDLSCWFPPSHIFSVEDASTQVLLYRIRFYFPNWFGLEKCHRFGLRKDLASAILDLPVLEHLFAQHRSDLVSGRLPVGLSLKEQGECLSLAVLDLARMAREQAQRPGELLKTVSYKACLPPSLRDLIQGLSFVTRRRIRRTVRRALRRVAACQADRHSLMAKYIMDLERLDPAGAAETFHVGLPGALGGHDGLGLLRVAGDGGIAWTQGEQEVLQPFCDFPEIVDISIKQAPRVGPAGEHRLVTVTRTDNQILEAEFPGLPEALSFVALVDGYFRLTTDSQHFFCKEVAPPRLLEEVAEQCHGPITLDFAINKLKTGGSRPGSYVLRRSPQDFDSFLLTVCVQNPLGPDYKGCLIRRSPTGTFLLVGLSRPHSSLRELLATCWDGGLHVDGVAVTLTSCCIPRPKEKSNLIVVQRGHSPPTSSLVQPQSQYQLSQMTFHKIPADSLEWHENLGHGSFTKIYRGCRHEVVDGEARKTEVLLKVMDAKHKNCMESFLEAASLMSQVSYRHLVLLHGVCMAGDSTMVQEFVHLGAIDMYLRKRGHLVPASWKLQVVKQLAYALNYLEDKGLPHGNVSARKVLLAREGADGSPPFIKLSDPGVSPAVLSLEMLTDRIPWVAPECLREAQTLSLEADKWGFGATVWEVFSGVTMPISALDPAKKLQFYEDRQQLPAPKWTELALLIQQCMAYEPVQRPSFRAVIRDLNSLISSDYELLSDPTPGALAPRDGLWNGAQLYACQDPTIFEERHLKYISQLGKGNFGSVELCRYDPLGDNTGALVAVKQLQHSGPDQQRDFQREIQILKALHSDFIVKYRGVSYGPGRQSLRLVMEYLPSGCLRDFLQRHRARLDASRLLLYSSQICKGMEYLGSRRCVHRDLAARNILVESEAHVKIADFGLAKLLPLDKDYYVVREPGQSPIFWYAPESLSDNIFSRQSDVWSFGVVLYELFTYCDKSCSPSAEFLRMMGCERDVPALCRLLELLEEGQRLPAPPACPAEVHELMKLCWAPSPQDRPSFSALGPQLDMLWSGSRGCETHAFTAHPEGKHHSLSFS
In words: Inhibition of JAK3 (unknown origin) using CSKtide as substrate after 30 mins in presence of [gamma33P]ATP by liquid scintillation counting method.

For experiment [2], the target named is Tyrosine-protein kinase JAK1 (Homo sapiens, UniProt P23458). Kind of experiment: Inhibition of human JAK1 (V856 to K1154 residues) expressed in bacterial expression system assessed as residual activity at 50 nM by KINOMEscan assay relative to control.
In experiment [3] the target is Non-receptor tyrosine-protein kinase TNK1 (Homo sapiens) (UniProt Q13470). Kind of experiment: Inhibition of wild-type human full length TNK1 (M1 to P661 residues) expressed in bacterial expression system assessed as residual activity at 50 nM by Kinomescan method relative to control.
The target in experiment [4] is Serine/threonine-protein kinase SIK2 (Homo sapiens) (UniProt Q9H0K1). In words: Inhibition of wild-type human full length QIK (M1 to N926 residues) expressed in bacterial expression system assessed as residual activity at 50 nM by Kinomescan method relative to control.
The target in experiment [5] is Mast/stem cell growth factor receptor Kit (Homo sapiens) (UniProt P10721). In words: Inhibition of wild-type human partial length KIT (I571 to D952 residues) expressed in bacterial expression system assessed as residual activity at 50 nM by Kinomescan method relative to control.
The test system of experiment [6] is Plasmodium falciparum. Kind of experiment: Inhibition of wild-type Plasmodium falciparum full length PFB0815W (M1 to S524 residues) expressed in mammalian expression system assessed as residual activity at 50 nM by Kinomescan method relative to control.
Experiment [7] relates to Phosphatidylinositol 4,5-bisphosphate 3-kinase catalytic subunit alpha isoform (Homo sapiens), P42336 [Q546K]. Kind of experiment: Inhibition of human partial length PIK3CA Q546K mutant (R108 to N1068 residues) expressed in mammalian expression system assessed as residual activity at 50 nM by Kinomescan method relative to control.
Chain of Phosphatidylinositol 4,5-bisphosphate 3-kinase catalytic subunit alpha isoform (Homo sapiens), P42336 [Q546K] (P42336 whole entry Q546K, the tested form may be a part, canonical isoform): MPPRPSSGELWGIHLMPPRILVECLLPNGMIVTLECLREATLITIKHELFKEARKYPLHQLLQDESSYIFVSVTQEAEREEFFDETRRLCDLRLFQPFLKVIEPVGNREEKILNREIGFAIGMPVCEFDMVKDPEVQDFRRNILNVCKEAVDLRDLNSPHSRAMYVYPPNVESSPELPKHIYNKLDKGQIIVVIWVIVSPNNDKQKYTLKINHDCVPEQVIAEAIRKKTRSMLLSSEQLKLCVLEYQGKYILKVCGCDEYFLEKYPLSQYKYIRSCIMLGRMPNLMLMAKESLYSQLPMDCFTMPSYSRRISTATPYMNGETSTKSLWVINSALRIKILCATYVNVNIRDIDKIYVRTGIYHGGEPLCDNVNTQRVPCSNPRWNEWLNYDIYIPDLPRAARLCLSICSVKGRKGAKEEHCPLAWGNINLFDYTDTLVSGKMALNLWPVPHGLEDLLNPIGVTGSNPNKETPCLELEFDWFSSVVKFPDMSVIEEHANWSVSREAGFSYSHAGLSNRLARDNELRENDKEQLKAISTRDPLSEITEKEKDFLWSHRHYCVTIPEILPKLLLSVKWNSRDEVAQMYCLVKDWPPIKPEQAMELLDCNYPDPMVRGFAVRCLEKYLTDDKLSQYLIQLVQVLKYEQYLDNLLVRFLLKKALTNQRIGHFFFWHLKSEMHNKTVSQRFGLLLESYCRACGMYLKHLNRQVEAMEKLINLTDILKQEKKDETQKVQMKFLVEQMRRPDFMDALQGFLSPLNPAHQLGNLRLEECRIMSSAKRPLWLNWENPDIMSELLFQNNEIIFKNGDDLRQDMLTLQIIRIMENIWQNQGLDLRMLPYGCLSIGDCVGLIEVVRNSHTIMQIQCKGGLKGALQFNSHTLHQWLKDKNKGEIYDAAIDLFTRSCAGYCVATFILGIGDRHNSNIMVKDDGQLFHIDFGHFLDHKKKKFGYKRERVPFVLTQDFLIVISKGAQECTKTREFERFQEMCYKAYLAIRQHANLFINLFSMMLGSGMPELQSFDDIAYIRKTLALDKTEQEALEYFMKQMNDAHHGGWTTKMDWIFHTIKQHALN
In experiment [8] the target is Receptor tyrosine-protein kinase erbB-4 (Homo sapiens) (UniProt Q15303). In words: Inhibition of wild-type human partial length ERBB4 (L690 to K994 residues) expressed in bacterial expression system assessed as residual activity at 50 nM by Kinomescan method relative to control.
Chain of Receptor tyrosine-protein kinase erbB-4 (Homo sapiens) (Q15303 whole entry, the tested form may be a part): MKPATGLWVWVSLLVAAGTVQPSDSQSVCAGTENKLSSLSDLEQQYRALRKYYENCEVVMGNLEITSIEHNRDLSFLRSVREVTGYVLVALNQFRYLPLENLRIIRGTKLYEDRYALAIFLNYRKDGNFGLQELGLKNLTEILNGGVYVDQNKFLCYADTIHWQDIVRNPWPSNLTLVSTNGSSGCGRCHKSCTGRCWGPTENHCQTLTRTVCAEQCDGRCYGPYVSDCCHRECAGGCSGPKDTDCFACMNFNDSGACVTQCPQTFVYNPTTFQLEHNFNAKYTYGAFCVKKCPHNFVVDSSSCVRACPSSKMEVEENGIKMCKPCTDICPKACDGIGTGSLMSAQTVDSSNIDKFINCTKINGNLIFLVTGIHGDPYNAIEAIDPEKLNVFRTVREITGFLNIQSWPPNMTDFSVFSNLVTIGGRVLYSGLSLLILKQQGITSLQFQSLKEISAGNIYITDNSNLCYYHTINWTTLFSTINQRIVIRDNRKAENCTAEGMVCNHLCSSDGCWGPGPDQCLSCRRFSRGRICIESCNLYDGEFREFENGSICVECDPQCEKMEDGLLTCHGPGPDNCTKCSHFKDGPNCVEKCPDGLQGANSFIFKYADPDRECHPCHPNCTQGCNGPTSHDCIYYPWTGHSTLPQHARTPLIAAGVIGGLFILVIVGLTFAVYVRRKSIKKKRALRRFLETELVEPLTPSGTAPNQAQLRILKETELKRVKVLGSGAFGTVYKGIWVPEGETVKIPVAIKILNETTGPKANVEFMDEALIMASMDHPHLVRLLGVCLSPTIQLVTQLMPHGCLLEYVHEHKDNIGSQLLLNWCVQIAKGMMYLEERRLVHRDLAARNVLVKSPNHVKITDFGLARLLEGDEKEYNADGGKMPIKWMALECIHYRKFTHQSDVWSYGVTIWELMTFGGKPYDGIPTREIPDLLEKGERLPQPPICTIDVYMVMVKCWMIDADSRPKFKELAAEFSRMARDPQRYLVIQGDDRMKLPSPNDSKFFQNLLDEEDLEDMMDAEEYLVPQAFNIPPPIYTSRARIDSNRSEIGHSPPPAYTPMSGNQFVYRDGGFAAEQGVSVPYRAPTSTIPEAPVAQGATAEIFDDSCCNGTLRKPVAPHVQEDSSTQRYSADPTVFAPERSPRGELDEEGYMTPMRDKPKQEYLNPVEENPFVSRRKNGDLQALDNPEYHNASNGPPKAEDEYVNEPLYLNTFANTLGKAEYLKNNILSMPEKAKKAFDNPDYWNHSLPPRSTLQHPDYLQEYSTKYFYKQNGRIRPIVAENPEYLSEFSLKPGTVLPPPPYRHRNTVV
In experiment [9] the target is Serine/threonine-protein kinase pim-3 (Homo sapiens) (UniProt Q86V86). Kind of experiment: Inhibition of wild-type human partial length PIM3 (G16 to A317 residues) expressed in bacterial expression system assessed as residual activity at 50 nM by Kinomescan method relative to control.
The target in experiment [10] is Serine/threonine-protein kinase mTOR (Homo sapiens) (UniProt P42345). In words: Inhibition of wild-type human partial length MTOR (L1382 to W2549 residues) expressed in mammalian expression system assessed as residual activity at 50 nM by Kinomescan method relative to control.
Experiment [11] deals with Serine/threonine-protein kinase D3 (Homo sapiens) (UniProt O94806). Kind of experiment: Inhibition of wild-type human partial length PKD3 (S543 to E863 residues) expressed in bacterial expression system assessed as residual activity at 50 nM by Kinomescan method relative to control.
Chain of Serine/threonine-protein kinase D3 (Homo sapiens) (O94806 whole entry, the tested form may be a part): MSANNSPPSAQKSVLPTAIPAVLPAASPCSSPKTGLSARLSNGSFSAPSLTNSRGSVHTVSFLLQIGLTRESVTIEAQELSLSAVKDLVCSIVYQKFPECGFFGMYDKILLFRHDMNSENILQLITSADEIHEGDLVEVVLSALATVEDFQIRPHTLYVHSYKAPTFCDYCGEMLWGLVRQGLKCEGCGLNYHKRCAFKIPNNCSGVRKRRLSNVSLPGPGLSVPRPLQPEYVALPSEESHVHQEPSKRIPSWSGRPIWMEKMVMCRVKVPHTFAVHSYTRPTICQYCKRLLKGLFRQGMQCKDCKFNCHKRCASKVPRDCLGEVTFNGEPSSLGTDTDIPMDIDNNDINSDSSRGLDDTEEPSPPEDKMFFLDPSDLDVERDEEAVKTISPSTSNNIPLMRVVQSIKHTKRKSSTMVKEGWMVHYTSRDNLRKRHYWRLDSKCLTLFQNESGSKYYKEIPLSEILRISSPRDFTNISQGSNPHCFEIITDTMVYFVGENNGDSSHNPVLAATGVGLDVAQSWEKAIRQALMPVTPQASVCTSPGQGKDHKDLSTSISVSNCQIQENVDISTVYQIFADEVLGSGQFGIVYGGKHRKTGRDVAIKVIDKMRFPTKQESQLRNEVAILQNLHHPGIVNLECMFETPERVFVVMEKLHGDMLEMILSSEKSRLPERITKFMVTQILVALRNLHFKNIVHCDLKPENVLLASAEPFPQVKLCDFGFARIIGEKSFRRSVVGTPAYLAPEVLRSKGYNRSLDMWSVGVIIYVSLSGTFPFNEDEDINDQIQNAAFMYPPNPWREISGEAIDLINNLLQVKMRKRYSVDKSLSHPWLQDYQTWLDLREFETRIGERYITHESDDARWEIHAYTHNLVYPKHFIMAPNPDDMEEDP
Experiment [12] has as its target Serine/threonine-protein kinase Chk1 (Homo sapiens) (UniProt O14757). Kind of experiment: Inhibition of wild-type human partial length CHK1 (M1 to G289 residues) expressed in bacterial expression system assessed as residual activity at 50 nM by Kinomescan method relative to control.
The target in experiment [13] is Inhibitor of nuclear factor kappa-B kinase subunit epsilon (Homo sapiens) (UniProt Q14164). In words: Inhibition of wild-type human full length IKK-epsilon (M1 to V716 residues) expressed in mammalian expression system assessed as residual activity at 50 nM by Kinomescan method relative to control.
The target of experiment [14] is Serine/threonine-protein kinase LATS2 (Homo sapiens) (UniProt Q9NRM7). In words: Inhibition of wild-type human partial length LATS2 (Q641 to V1088 residues) expressed in mammalian expression system assessed as residual activity at 50 nM by Kinomescan method relative to control.
Chain of Serine/threonine-protein kinase LATS2 (Homo sapiens) (Q9NRM7 whole entry, the tested form may be a part): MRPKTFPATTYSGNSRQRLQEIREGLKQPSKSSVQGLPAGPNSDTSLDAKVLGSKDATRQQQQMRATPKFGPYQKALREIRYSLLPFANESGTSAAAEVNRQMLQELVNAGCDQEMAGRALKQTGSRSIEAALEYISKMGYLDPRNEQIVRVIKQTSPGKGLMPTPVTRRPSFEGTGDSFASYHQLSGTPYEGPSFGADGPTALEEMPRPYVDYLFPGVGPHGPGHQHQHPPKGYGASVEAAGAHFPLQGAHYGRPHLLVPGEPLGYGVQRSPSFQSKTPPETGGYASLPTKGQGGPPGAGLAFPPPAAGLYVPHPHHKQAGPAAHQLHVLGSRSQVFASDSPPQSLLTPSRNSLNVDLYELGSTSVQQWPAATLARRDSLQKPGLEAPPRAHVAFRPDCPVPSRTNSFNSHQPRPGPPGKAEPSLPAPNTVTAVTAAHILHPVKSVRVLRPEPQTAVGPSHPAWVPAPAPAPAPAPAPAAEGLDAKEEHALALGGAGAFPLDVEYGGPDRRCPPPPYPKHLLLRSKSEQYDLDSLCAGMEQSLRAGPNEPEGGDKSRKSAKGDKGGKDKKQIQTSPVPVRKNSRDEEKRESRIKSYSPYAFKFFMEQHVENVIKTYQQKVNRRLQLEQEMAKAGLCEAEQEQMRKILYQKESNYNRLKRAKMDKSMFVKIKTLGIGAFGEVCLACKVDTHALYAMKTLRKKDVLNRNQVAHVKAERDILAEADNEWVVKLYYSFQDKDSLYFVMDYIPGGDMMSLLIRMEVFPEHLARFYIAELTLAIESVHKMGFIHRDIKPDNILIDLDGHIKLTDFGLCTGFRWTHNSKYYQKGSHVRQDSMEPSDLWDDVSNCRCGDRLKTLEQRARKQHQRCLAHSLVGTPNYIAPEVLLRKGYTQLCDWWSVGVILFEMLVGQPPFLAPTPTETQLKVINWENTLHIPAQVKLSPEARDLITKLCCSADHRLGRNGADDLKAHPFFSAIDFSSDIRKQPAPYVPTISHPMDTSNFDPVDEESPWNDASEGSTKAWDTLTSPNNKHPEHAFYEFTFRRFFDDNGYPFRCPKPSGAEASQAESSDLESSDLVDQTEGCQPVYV
The target of experiment [15] is MAP kinase-activated protein kinase 5 (Homo sapiens) (UniProt Q8IW41). Kind of experiment: Inhibition of wild-type human partial length MAPKAPK5 (M1 to D322 residues) expressed in mammalian expression system assessed as residual activity at 50 nM by Kinomescan method relative to control.
Experiment [16] deals with Microtubule-associated serine/threonine-protein kinase 1 (Homo sapiens) (UniProt Q9Y2H9). In words: Inhibition of wild-type human partial length MAST1 (S346 to V730 residues) expressed in mammalian expression system assessed as residual activity at 50 nM by Kinomescan method relative to control.
The target in experiment [17] is Mitogen-activated protein kinase 12 (Homo sapiens) (UniProt P53778). Kind of experiment: Inhibition of wild-type human full length p38-gamma (M1 to L367 residues) expressed in mammalian expression system assessed as residual activity at 50 nM by Kinomescan method relative to control.
Chain of Mitogen-activated protein kinase 12 (Homo sapiens) (P53778 whole entry, the tested form may be a part): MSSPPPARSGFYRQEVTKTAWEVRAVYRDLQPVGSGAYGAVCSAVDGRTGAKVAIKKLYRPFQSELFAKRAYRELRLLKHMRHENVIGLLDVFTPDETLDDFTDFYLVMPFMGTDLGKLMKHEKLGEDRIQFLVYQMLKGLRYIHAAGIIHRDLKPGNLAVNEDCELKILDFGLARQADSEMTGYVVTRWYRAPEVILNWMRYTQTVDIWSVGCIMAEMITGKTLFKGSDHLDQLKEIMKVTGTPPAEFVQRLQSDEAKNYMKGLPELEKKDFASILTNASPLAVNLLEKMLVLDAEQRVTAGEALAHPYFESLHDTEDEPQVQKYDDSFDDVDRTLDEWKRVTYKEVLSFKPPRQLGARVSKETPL

The term IC50 denotes the concentration needed to halve the response being measured. For the molecule `COc1ccc(-c2cc3c(N[C@@H]4CC[C@](C)(N)C4(C)C)c(C(N)=O)cnn3c2)cn1`, the IC50 in [1] worked out at 0.9 nM. Besides, the Activity in experiment [2] amounted to 9%; in [3], 92%; in experiment [4] it was 63%; in experiment [5] it was 98%; in experiment [6], 100%; in experiment [7], 100%. Besides, the Activity in [8] was determined as 100%; in experiment [9], 72%; in [10], 97%; in experiment [11] it was 73%; in experiment [12], 85%; in [13], 91%. The Activity in experiment [14] turned out to be 94%; in [15], 100%; in experiment [16], 98%; in experiment [17] it was 100%.
`CC1(C)[C@H](Nc2c(C(N)=O)cnn3cc(-c4ccccc4)cc23)CC[C@]1(C)N`: the IC50 in experiment [1] was determined as 0.9 nM. Moreover, the Activity in [2] is 1.4%; in [3], 34%; in experiment [4] it was 36%; in [5], 55%; in experiment [6], 67%; in [7], 84%. Further, the Activity was 87% in experiment [8]; 92% in [9]; 95% in experiment [10]; 96% in [11]; 98% in experiment [12]; 100% in experiment [13]. The Activity in experiment [14], in experiment [15], in [16] and in experiment [17] was 100% each time.
